Legend:
Human 5-HT4(d) = target: T1, Human 5-HT4(d) (Homo sapiens, UniProt Q13639); assay: Agonist-induced cAMP elevation in human 5-HT4(d) transfected HEK293 cells; type: cell-based; details: for Emax: HEK293, cAMP production normalized to the amount produced by 1,000 nM serotonin; for EC50: cAMP elevation (HTRF), human 5-HT4(d) transfected HEK293 cells
T1 construct: expressed in transfected cells
Description: Human 5-HT4(d) transfected HEK293 cells were established in-house. The cells were grown at 37° C. and 5% CO2 in DMEM supplemented with 10% FCS, 20 mM HEPES (pH 7.4), 200 μg/ml hygromycin B (Gibco), 100 units/ml penicillin and 100 μg/ml streptomycin.
The cells were grown to 60-80% confluence. On the previous day before treatment with compounds dialyzed FCS (Gibco) was substituted for normal and the cells were incubated overnight.
Compounds were prepared in 96-well plates (12.5 μl/well). The cells were harvested with PBS/1 mM EDTA, centrifuged and washed with PBS. At the beginning of the assay, cell pellet was resuspended in DMEM supplemented with 20 mM HEPES, 10 μM pargyline (Sigma) and 1 mM 3-isobutyl-1-methylxanthine (Sigma) at the concentration of 1.6×10^5 cells/ml and left for 15 min at room temperature. The reaction was initiated by addition of the cells into plates (12.5 μl/well). After incubation for 15 min at room temperature, 1% Triton X-100 was added to stop the reaction (25 μl/well) and the plates were left for 30 minutes at room temperature. Homogenous time-resolved fluorescence-based cAMP (Schering) detection was made according to the manufacturer's instruction. ARVOsx multilabel counter (Wallac) was used to measure HTRF (excitation 320 nm, emission 665 nm/620 nm, delay time 50 μs, window time 400 μs).
Data was analyzed based on the ratio of fluorescence intensity of each well at 620 nm and 665 nm followed by cAMP quantification using cAMP standard curve. Enhancement of cAMP production elicited by each compound was normalized to the amount of cAMP produced by 1,000 nM serotonin (Sigma).

T1 sequence (Q13639 1-360 isoform Q13639-3): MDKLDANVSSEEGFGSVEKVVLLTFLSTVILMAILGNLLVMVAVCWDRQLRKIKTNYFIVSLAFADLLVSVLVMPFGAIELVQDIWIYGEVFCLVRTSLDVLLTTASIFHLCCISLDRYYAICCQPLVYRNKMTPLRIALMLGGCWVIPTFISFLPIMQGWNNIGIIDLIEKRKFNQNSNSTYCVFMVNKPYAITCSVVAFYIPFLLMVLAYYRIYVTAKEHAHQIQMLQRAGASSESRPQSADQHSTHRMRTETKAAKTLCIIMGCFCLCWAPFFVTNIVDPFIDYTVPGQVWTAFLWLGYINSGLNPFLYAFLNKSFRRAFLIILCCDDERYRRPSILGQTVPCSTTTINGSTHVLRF

## O=C(O)C1(CN2CCC(COc3noc4cccc(O[C@H]5CC[C@@H](CO)CC5)c34)CC2)CCOCC1 [Example 46, 4-[(4-{[(4-{[cis-4-(Hydroxymethyl)cyclohexyl]oxy}-1,2-benzisoxazol-3-yl)oxy]methyl}piperidin-1-yl)-methyl]tetrahydro-2H-pyran-4-carboxylic acid]
Human 5-HT4(d)
  Emax: 45%
  EC50: 5.5 nM
other
  melting point: 197.2 °C

## O=C(O)C1(CN2CCC(COc3noc4cccc(O[C@H]5CC[C@@H](CO)CC5)c34)CC2)CCCC1 [Example 48, 1-[(4-{[(4-{[cis-4-(Hydroxymethyl)cyclohexyl]oxy}-1,2-benzisoxazol-3-yl)oxy]methyl}piperidin-1-yl)methyl]cyclopentanecarboxylic acid]
Human 5-HT4(d)
  Emax: 43%
  EC50: 4.3 nM
other
  melting point: 188 °C

## O=C(O)C1(CN2CCC(COc3noc4cccc(OCC5(CO)CCC5)c34)CC2)CCC1 [Example 50]
Human 5-HT4(d)
  Emax: 50%
  EC50: 98 nM
other
  melting point: 194.2 °C

## O=C(O)C1(CN2CCC(CNc3noc4cccc(OCC(F)(F)F)c34)CC2)CCOCC1 [Example 53, 4-{[4-({[4-(2,2,2-Trifluoroethoxy)-1,2-benzisoxazol-3-yl]amino}methyl)piperidin-1-yl]methyl}-tetrahydro-2H-pyran-4-carboxylic acid]
Human 5-HT4(d)
  Emax: 59%
  EC50: 2.8 nM
other
  melting point: 171.9 °C

Source: patent US8816090B2, “Benzisoxazole derivatives” (Pfizer Inc., priority 2005, dated 2014)
